The results in this text go back to PubChem BioAssay (NCI).

Some test systems named below: MCF7 breast; MDA-MB-231 breast; OVCAR-5 ovarian; UO-31 renal; SNB-19 CNS; T-47D breast; SK-OV-3 ovarian; MALME-3M melanoma.
What all share (assay): growth of human tumour cells (NCI), 48 h

Several values for one entry are separate records, joined by “and”; a condition that tells them apart may be missing. Equal values may be shown once.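 In this assay, cells in 96-well plates receive the compound at five concentrations for 48 hours. Endpoints are linearly interpolated between the surrounding concentrations. Abbreviation: GI50, concentration required for 50% inhibition of growth. TGI is the concentration that stops growth completely.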

As for `NCCCn1c2c(c3ccc([N+](=O)[O-])cc3c1=O)C(=O)c1cc(-c3ccccc3)ccc1-2`, the GI50 is 0.357 µM in the assay on MCF7 breast, 1.29 µM with MDA-MB-231 breast, 1.48 µM in the assay on OVCAR-5 ovarian and 1.73 µM in the assay with UO-31 renal. Moreover, the TGI in the assay with MCF7 breast was 1.32 µM; in the assay on MDA-MB-231 breast, 2.85 µM; with OVCAR-5 ovarian, 2.95 µM; with UO-31 renal, 3.41 µM.

Turning to `CCN(CC)CCOc1ccc(/C=C2\C[C@H]3[C@H]4CC=C5C[C@@H](O)CC[C@]5(C)[C@H]4CC[C@]3(C)[C@H]2O)cc1OC`, the GI50 in the assay with MCF7 breast was 12.4 µM; in the assay with MDA-MB-231 breast, 6.94 µM; with OVCAR-5 ovarian, 9.44 µM; in the assay with SNB-19 CNS it was 17.1 µM; in the assay with T-47D breast it was 24.5 µM; in the assay with UO-31 renal it was 7.23 µM. Further, the TGI was greater than 50 µM with MCF7 breast; 14.2 µM in the assay with MDA-MB-231 breast; 18.6 µM in the assay on OVCAR-5 ovarian; greater than 50 µM with SNB-19 CNS; greater than 50 µM in the assay with T-47D breast; 18 µM in the assay with UO-31 renal.

Turning to `NC1CCC(Nc2nc(NCc3cc(Cl)ccc3O)c3ncn(C4CCCC4)c3n2)CC1` (configuration not stated), the GI50 in the assay with MCF7 breast was 0.104 µM; with MDA-MB-231 breast, 0.186 µM; in the assay with OVCAR-5 ovarian, 0.242 µM; in the assay on SK-OV-3 ovarian it was 0.494 µM; in the assay with SNB-19 CNS it was 0.202 µM; with T-47D breast, 0.259 µM. Also, in the assay on UO-31 renal, the GI50 was 0.227 µM. Besides, the TGI in the assay with MCF7 breast came out at 0.318 µM; in the assay on MDA-MB-231 breast, 0.759 µM; in the assay on OVCAR-5 ovarian, 1.16 µM; with SK-OV-3 ovarian, 1.65 µM; in the assay on SNB-19 CNS it was 1.01 µM; in the assay with T-47D breast, 0.858 µM. This molecule also returned a TGI with UO-31 renal of 0.599 µM.

With `Cn1cc(-c2csc(-c3cn(CCCCN4CCCCC4)c4ccc(F)cc34)n2)c2cccnc21`, the values for the GI50 with OVCAR-5 ovarian, in the assay on SK-OV-3 ovarian and in the assay with T-47D breast were 2.86 µM, 16.2 µM and 15.7 µM, respectively. For the same molecule, the TGI was determined as 11.3 µM in the assay with OVCAR-5 ovarian, 32.7 µM in the assay with SK-OV-3 ovarian and 41.4 µM in the assay with T-47D breast.

As to `CNc1cc2nc3cc(NC)c(C)cc3cc2cc1C`, the GI50 in the assay on MALME-3M melanoma is 2.7 µM; in the assay on MDA-MB-231 breast it was 1.08 µM; in the assay with OVCAR-5 ovarian it was 2.75 µM; in the assay with SK-OV-3 ovarian, 0.695 µM; in the assay with SNB-19 CNS, 1.48 µM; in the assay on T-47D breast, 1.1 µM. In the assay on UO-31 renal, the GI50 was 0.365 µM. For the same molecule, the TGI was 19.8 µM in the assay with MALME-3M melanoma; 2.88 µM with MDA-MB-231 breast; 20.2 µM with OVCAR-5 ovarian; 12.8 µM in the assay on SK-OV-3 ovarian; 16.6 µM in the assay on SNB-19 CNS; 18.4 µM in the assay on T-47D breast. Also, the TGI in the assay with UO-31 renal was determined as 13.3 µM.

Regarding `O=C1C=CC(=Nc2ccccc2)c2ccccc21`, the TGI is 21.4 µM with MCF7 breast; 11.3 µM in the assay on MDA-MB-231 breast; 33.4 µM in the assay on OVCAR-5 ovarian; 80.5 µM in the assay on SK-OV-3 ovarian; greater than 100 µM in the assay with SNB-19 CNS; 47.9 µM in the assay with T-47D breast. The TGI with UO-31 renal is 23.3 µM.

Take `CSc1ccc2c(c1)N(CCC1CCCCN1C)c1ccccc1S2` (configuration not stated): the GI50 in the assay on MALME-3M melanoma is 6.91 µM and 1.67 µM; with MCF7 breast, 5.63 µM and 2.2 µM; in the assay with MDA-MB-231 breast, 2.08 µM and 2.4 µM; in the assay on OVCAR-5 ovarian it was 10.1 µM and 3.83 µM; in the assay on SK-OV-3 ovarian it was 13 µM and 13.8 µM; in the assay with T-47D breast it was 5.82 µM and 3.4 µM. For the same molecule, the GI50 with UO-31 renal was 3.26 µM and 3.61 µM. For the same molecule, the TGI was 23.8 µM and 3.67 µM in the assay with MALME-3M melanoma; 21.7 µM and 4.48 µM in the assay on MCF7 breast; 5.99 µM and 6.11 µM with MDA-MB-231 breast; 22 µM and 13.2 µM in the assay with OVCAR-5 ovarian; 27.5 µM and 29 µM in the assay with SK-OV-3 ovarian; 23.3 µM and 11.4 µM in the assay on T-47D breast. Besides, the TGI in the assay with UO-31 renal was 14.5 µM and 15.4 µM.

As for `N.N.O=P([O-])([O-])CN(CCN(CP(=O)([O-])[O-])CP(=O)([O-])[O-])CP(=O)([O-])[O-].[Pt+2]`, the GI50 with MALME-3M melanoma, in the assay on OVCAR-5 ovarian, in the assay on SK-OV-3 ovarian, with SNB-19 CNS and in the assay on UO-31 renal was greater than 100 µM in each case. Moreover, the TGI in the assay with MALME-3M melanoma, with OVCAR-5 ovarian, in the assay with SK-OV-3 ovarian, in the assay on SNB-19 CNS and in the assay with UO-31 renal was greater than 100 µM throughout.

In the case of `CCOc1ccc2c(C)cc(=O)oc2c1`, the TGI in the assay on MALME-3M melanoma, in the assay on MCF7 breast, in the assay with MDA-MB-231 breast, in the assay with OVCAR-5 ovarian, in the assay on SNB-19 CNS and with T-47D breast was greater than 100 µM in each case. In addition, the TGI with UO-31 renal is greater than 100 µM.

As to `C=C1CC[C@@H]2[C@](C)(COC(C)=O)[C@H](OC(C)=O)CC[C@@]2(C)[C@@H]1CC(Nc1ccc(S(=O)(=O)Nc2cc(C)on2)cc1)C1=CCOC1=O` (some centres not stated), the GI50 is 2.22 µM with MDA-MB-231 breast; 2.16 µM with OVCAR-5 ovarian; 11 µM in the assay with SK-OV-3 ovarian; 3.12 µM with SNB-19 CNS; 2.8 µM in the assay with T-47D breast; 1.69 µM in the assay with UO-31 renal. Moreover, the TGI with MDA-MB-231 breast worked out at 5.11 µM; with OVCAR-5 ovarian it was 4.05 µM; in the assay with SK-OV-3 ovarian, 23.1 µM; with SNB-19 CNS it was 12.2 µM; with T-47D breast it was 7.37 µM; in the assay on UO-31 renal, 3.52 µM.

For `Nc1ccccc1NC(=O)c1ccc(CN2CCC/C(=C\c3ccccn3)C2=O)cc1`, the GI50 is 1.01 µM in the assay on MALME-3M melanoma; 0.797 µM in the assay on MCF7 breast; 4.04 µM in the assay on MDA-MB-231 breast; 1.93 µM with SK-OV-3 ovarian; 3.16 µM with SNB-19 CNS; 0.806 µM in the assay with T-47D breast. The GI50 in the assay on UO-31 renal was 1.24 µM. Also, the TGI was greater than 100 µM in the assay on MALME-3M melanoma; greater than 100 µM in the assay on MCF7 breast; greater than 100 µM in the assay on MDA-MB-231 breast; greater than 100 µM in the assay on SK-OV-3 ovarian; greater than 100 µM in the assay with SNB-19 CNS; 9.59 µM in the assay on T-47D breast. In the assay with UO-31 renal, this molecule yielded a TGI of 15.9 µM.

Turning to `O=C1C(Nc2ccc(Br)cc2)=C(I)C(=O)c2ncccc21`, the GI50 is 0.731 µM with MALME-3M melanoma; 0.806 µM with MDA-MB-231 breast; 1.58 µM with OVCAR-5 ovarian; 5.61 µM with SK-OV-3 ovarian; 1.41 µM in the assay with SNB-19 CNS; 0.954 µM in the assay with T-47D breast. Also, in the assay with UO-31 renal, the GI50 is 0.641 µM. In addition, the TGI with MALME-3M melanoma stood at 1.41 µM; in the assay with MDA-MB-231 breast, 1.63 µM; with OVCAR-5 ovarian it was 5.71 µM; in the assay on SK-OV-3 ovarian it was 11.6 µM; with SNB-19 CNS, 5.16 µM; in the assay with T-47D breast it was 2.24 µM. Also, in the assay with UO-31 renal, the TGI came to 1.85 µM.
